Reference: patent US12692221B2 (priority 2024, dated 2026)
Values after ≈ are worked out from the molar mass of the structure shown. “Also recorded” adds a separate entry of the source.

Key:
5-HT2B [1] = biological target: T1, 5-HT2B (Homo sapiens, UniProt P41595); experiment: Calcium flux agonist assay, 293T cells; type: cell-based; set-up: expressed in transfected cells; host or cells: Human Embryonic Kidney (293T) cells, transient; conditions: for Emax: HEK-293T, 5-HT2B, normalized to maximum 5-HT response; for Emax / 5-HT2B receptor activation: calcium flux; for 5-HT2B receptor activation: in words
T1 sequence (P41595 whole entry): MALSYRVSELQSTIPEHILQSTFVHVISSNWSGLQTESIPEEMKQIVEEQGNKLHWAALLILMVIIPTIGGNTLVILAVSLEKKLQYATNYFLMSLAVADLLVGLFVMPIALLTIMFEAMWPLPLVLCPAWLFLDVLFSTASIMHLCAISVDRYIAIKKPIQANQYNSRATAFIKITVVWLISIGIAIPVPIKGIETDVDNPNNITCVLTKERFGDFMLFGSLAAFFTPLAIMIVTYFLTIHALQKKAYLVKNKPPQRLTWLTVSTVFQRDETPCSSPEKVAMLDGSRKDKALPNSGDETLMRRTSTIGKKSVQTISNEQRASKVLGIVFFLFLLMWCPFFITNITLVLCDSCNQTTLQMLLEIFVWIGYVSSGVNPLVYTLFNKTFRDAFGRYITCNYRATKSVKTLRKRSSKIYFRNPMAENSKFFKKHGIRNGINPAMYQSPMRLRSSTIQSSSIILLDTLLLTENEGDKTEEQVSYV

5-HT2A [2] = biological target: T2, 5-HT2A (Homo sapiens, UniProt P28223); experiment: IP-One HTRF IP-1 accumulation functional assay, 5-HT2A-expressing HEK293; type: cell-based; set-up: host or cells: HEK293
T2 sequence (P28223 whole entry, looked up): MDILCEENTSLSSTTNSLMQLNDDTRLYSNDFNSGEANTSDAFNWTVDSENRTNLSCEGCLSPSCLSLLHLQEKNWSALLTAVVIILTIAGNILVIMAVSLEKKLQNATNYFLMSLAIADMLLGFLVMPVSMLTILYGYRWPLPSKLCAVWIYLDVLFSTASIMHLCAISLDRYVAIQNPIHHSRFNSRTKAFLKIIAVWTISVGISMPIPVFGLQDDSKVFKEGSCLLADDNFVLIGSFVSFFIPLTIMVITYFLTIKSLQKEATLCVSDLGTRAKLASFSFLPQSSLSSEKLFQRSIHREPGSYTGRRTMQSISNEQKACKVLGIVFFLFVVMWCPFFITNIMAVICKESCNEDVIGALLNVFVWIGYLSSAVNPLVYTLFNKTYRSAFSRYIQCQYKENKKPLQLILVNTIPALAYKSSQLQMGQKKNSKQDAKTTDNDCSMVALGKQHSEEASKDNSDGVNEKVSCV
Protocol: Methods (5-HT2A and 5-HT2C IP-One Functional Activity Assays): Intracellular accumulation of IP-1 was measured using an IP-One HTRF assay kit (Cat. #62IPAPEJ, Cisbio) at WuXi AppTec Co. Ltd. (Hong Kong) Discovery Biology Unit according to their standard protocols. Briefly, the reference compounds and screening compounds were 3.16-fold serially diluted in 100% DMSO for 10 points using Bravo. 70 nL of compounds were added to the assay plate using Echo555. Added 14 μL/7500 cells/well of 5-HT2A-expressing HEK293 or 5-HT2C-expressing HEK293 to the assay plate and incubate for 60 min at 37° C. Added 3 μL of IP-1 d2 Reagent working solution and 3 μL of IP-1 Tb Cryptate Antibody working solution to all wells. The plates were incubated for 1 hour at room temperature and read for fluorescence at 620 nm and 665 nm on an EnVision Multimode Plate Reader (PerkinElmer). The ratio of the acceptor and donor emission signals (665/620) were calculated for each individual well and substituted into the standard curve to obtain the log concentration of IP level. After converting to the antilog base IP-1, the average background control signal was subtracted from each well and values were normalized to the maximal response of 5-HT at 3 μM (100%). % MAX was calculated by taking the average normalized maximal response for each compound at the highest concentration tested. The data were analyzed using the four-parameter nonlinear regression curve-fitting function in GraphPad Prism 5 (GraphPad Software, San Diego, CA) to generate potency (EC50) values. The represented plots show normalized IP-1 values versus compound concentrations; the corresponding numerical data are parameter estimates for the concentration-response curve using the four-parameter nonlinear regression curve-fitting function in GraphPad Prism 10.

5-HT2B [3] = biological target: T1, 5-HT2B; experiment: IP-One HTRF IP-1 accumulation functional assay, 5-HT2B/HEK293; type: cell-based; set-up: host or cells: HEK293
Protocol: Methods (5-HT2B IP-One Functional Activity Assays): Intracellular accumulation of IP-1 was measured using an IP-One HTRF) assay kit (Cat. #62IPAPEJ, Cisbio) at WuXi AppTec Co. Ltd. (Hong Kong) Discovery Biology Unit according to their standard protocols. Briefly, 5-HT2B/HEK293 were plated in a 384-well plate and incubated at 37° C. and 5% CO2 overnight. The reference compounds and screening compounds were 3.16-fold serially diluted in 100% DMSO for 10 points using Bravo. 70 nL of compounds were added to the cell plate using Echo555. Incubated for 60 minutes at 37° C. Added 3 μL of IP-1 d2 Reagent working solution and 3 μL of IP-1 Tb Cryptate Antibody working solution to all wells. The plates were incubated for 1 hour at room temperature and read on for fluorescence at 620 nm and 665 nm on an EnVision Multimode Plate Reader (PerkinElmer). The ratio of the acceptor and donor emission signals (665/620) were calculated for each individual well and substituted into the standard curve to obtain the log concentration of IP level. After converting to the antilog base IP-1, the average background control signal was subtracted from each well and values were normalized to the maximal response of 5-HT at 3 μM (100%). % MAX was calculated by taking the average normalized maximal response at the highest concentration tested. Data were analyzed using the four-parameter nonlinear regression curve-fitting function in GraphPad Prism 5 (GraphPad Software, San Diego, CA) to generate potency (EC50) values. Parameter constraint “Top=100” was used in the analysis of 5-HT2B IP-1. Represented plots show normalized IP-1 values versus compound concentrations; the corresponding numerical data are parameter estimates for the concentration-response curve using the 4-parameter nonlinear regression curve-fitting function in GraphPad Prism 10. “Top=100” parameter constraint was not enabled for the represented plot analysis.

5-HT2A [4] = biological target: T2, 5-HT2A; experiment: Calcium flux agonist assay, 293T cells; type: cell-based; set-up: expressed in transfected cells; host or cells: Human Embryonic Kidney (293T) cells, transient; conditions: for Emax: HEK-293T, calcium flux, 5-HT2A, normalized to maximum 5-HT response
male C57BL/6J mice [5] = experiment: Motor activity / distance traveled measured in parallel with HTR; type: in vivo, mouse; conditions: i.p.; for motor activity, in words: magnetometer activity
[6] = Aqueous solubility by sequential dilution in water, microscopic inspection; conditions: water, thermodynamic from solid
male C57BL/6J mice [7] = experiment: Mouse head-twitch response (HTR) assay, magnetometer; type: in vivo; conditions: for HTR (head twitch response), in words: i.p., doses up to 30 mpk
[8] = Photoabsorption 290-700 nm, molar extinction coefficient (photoliability); type: physicochemical; conditions: wavelength of maximal absorption between 290 nm and 700 nm
5-HT2B (h) = biological target: T3, 5-HT2B (h) (Homo sapiens, UniProt P41595); experiment: Radioligand binding 5-HT2B (h) (agonist radioligand), [^125I](±)DOI, CHO cells
T3 construct: host or cells: CHO cells
T3 sequence (P41595 whole entry): as the sequence (P41595 whole entry) above

5-HT2C (h) = biological target: T4, 5-HT2C (h) (Homo sapiens, UniProt P28335); experiment: Radioligand binding 5-HT2C (h) (agonist radioligand), [^125I](±)DOI, HEK-293 cells
T4 construct: host or cells: HEK-293 cells
T4 sequence (P28335 33-458): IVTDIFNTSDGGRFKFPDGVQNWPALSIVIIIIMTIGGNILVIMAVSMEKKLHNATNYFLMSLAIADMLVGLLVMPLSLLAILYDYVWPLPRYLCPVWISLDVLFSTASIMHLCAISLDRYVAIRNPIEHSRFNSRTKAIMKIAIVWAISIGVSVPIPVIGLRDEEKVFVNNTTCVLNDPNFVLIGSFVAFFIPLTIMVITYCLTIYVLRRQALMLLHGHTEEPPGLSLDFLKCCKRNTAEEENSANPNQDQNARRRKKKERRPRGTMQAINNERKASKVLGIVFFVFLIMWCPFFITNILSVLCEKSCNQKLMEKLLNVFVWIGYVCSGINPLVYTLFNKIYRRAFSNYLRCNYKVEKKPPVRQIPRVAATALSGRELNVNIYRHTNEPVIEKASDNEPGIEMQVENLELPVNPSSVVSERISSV

5-HT2A (h) = biological target: T5, 5-HT2A (h) (Homo sapiens, UniProt P28223); experiment: Radioligand binding 5-HT2A (h) (agonist radioligand), [^125I](±)DOI, HEK-293 cells; conditions: 5-HT2A, Hill coefficient
T5 construct: host or cells: HEK-293 cells
T5 sequence (P28223 whole entry, looked up): as the sequence (P28223 whole entry, looked up) above

SMILES | EC50 (5-HT2B [1]) [µM] | Emax (5-HT2B [1]) [%] | 5-HT2B receptor activation (5-HT2B [1]) | EC50 (5-HT2A [2]) [µM] | EC50 (5-HT2B [3]) [µM] | EC50 (5-HT2A [4]) [µM] | Emax (5-HT2A [4]) [%] | motor activity ID50 (male C57BL/6J mice [5]) [mpk] | motor activity, in words (male C57BL/6J mice [5]) | solubility [6] [mM] | ED50 (male C57BL/6J mice [7]; Mus musculus, ip, non-linear regression) [mg/kg] | HTR (head twitch response), in words (male C57BL/6J mice [7]) | MEC [8] [L/mol/cm] | IC50 (5-HT2B (h)) [µM] | Ki (5-HT2B (h)) [µM] | nH (5-HT2B (h); 5-HT2B, Hill coefficient) | Ki (5-HT2C (h)) [µM] | nH (5-HT2C (h); 5-HT2C, Hill coefficient) | nH (5-HT2A (h))
COc1cc(CCN)c(OC)cc1Br [Compound 2C-B, reference compound] | 0.00998 | 92.7 | near maximal activation | 0.0209 | 0.232 | 0.00062 | 105 |  |  |  |  |  |  |  |  |  |  |  | 
COc1cc(CC(C)C)c(OC)cc1CCN [Compound 2C-iBu, reference compound] | 0.0223 | 89.1 | near maximal activation |  |  | 0.0219 | 92.6 | 2 | modest but statistically significant effect on motor suppression at the doses of 3 and 10 mpk | 31.2 (≈ 7400 µg/mL) | 0.42 | produced clear HTR time-course and inverted U-shape dose-response patterns; also recorded: induced HTR activity |  |  |  |  |  |  | 
COc1cc(CC(C)C)c(CO)cc1CCN [Compound 2CiBu-5HM, [5-(2-Aminoethyl)-2-isobutyl-4-methoxy-phenyl]methanol] |  |  |  | 0.466 | 1.12 |  |  |  |  | 44.4 (≈ 10500 µg/mL) |  |  | 340.7 |  |  |  |  |  | 
COc1cc(C[C@@H](C)N)c(OC)cc1I [R-DOI, (−)-R-2,5-dimethoxy-4-iodo-amphetamine, reference compound] |  |  |  |  |  |  |  |  | increase in motor activity |  |  | induced HTR that gradually increased over time |  | 0.0023 | 0.0012 | 0.7 | 0.0004 | 1.0 | 0.7
